Source: patent US8785463B2, “GPR 119 agonists” (Cadila Healthcare Limited, priority 2010, dated 2014)

Target: T1, human GPR 119 receptor (Homo sapiens, UniProt Q8TDV5)
T1 construct: expressed in transfected cells
T1 sequence (Q8TDV5 1-335): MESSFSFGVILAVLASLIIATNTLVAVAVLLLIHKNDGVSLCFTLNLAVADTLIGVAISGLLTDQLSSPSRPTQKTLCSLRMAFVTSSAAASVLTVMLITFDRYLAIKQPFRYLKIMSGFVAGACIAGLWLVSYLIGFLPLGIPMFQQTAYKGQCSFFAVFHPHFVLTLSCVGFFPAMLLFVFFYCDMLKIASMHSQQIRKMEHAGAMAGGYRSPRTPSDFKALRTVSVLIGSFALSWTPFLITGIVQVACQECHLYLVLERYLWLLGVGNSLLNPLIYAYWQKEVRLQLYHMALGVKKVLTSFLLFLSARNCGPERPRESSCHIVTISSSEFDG
Experiment: cAMP assay in stable cell line expressing recombinant human GPR 119 receptor
Assay type: cell-based
Conditions: DMSO = 1
From the text: A stable cell line expressing recombinant human GPR 119 receptor was established and used to investigate the efficacy of the compounds of the invention based on the intracellular levels of cyclic AMP (cAMP) using commercially available cAMP kits.

| Compound | Fold increase in cyclic AMP with respective to DMSO (10 nM compound) [fold] | Fold increase in cyclic AMP with respective to DMSO (100 nM compound) [fold] | Fold increase in cyclic AMP with respective to DMSO (1 uM compound) [fold] |
| --- | --- | --- | --- |
| CC(C)c1noc(N2CCC(Oc3cc(Oc4ccc(/C=C5\SC(=O)NC5=O)cc4)ncn3)CC2)n1 [Example 10, (Z)-5-(4-((6-((1-(3-iso-Propyl-1,2,4-oxadiazol-5-yl)piperidin-4-yl)oxy)pyrimidin-4-yl)oxy)benzylidene)thiazolidine-2,4-dione] | 1.14 | 2.30 | 5.06 |
| COC(=O)N1CCC(Oc2cc(Oc3ccc(/C=C4\SC(=O)NC4=O)cc3)ncn2)CC1 [Example 35, (Z)-Methyl 4-((6-(4-((2,4-dioxothiazolidin-5-ylidene)methyl)phenoxy)pyrimidin-4-yl)oxy)piperidine-1-carboxylate] | 0.56 | 0.57 | 0.96 |
| COC(=O)N1CCC(Oc2cc(Oc3cccc(/C=C4\SC(=O)NC4=O)c3)ncn2)CC1 [Example 36, (Z)-Methyl 4-((6-(3-((2,4-dioxothiazolidin-5-ylidene)methyl)phenoxy)pyrimidin-4-yl)oxy)piperidine-1-carboxylate] | 0.80 | 1.38 | 2.19 |
| COC(=O)N1CCC(Oc2ncnc(Oc3cccc(/C=C4\SC(=O)N(C(C)C)C4=O)c3)c2C)CC1 [Example 32, (Z)-Methyl 4-((6-(3-((3-isopropyl-2,4-dioxothiazolidin-5-ylidene)methyl)phenoxy)-5-methylpyrimidin-4-yl)oxy)piperidine-1-carboxylate] | 0.77 | 0.94 | 1.45 |
| O=C1NC(=O)/C(=C/c2ccc(Oc3cc(OC4CCN(Cc5ccccc5)CC4)ncn3)cc2)S1 [Example 37, (Z)-5-(4-((6-((1-Benzylpiperidin-4-yl)oxy)pyrimidin-4-yl)oxy)benzylidene)thiazolidine-2,4-dione] | 0.97 | 1.47 | 2.07 |
| CCOC(=O)N1CCC(Oc2ncnc(Oc3cccc(/C=C4\SC(=O)NC4=O)c3)c2C)CC1 [Example 20, (Z)-Ethyl 4-((6-(3-((2,4-dioxothiazolidin-5-ylidene)methyl)phenoxy)-5-methylpyrimidin-4-yl)oxy)piperidine-1-carboxylate] | 0.59 | 2.02 | 2.39 |

Now from value to compound:

| Fold increase in cyclic AMP with respective to DMSO (10 nM compound) [fold] | Fold increase in cyclic AMP with respective to DMSO (100 nM compound) [fold] | Fold increase in cyclic AMP with respective to DMSO (1 uM compound) [fold] | Compound |
| --- | --- | --- | --- |
| 0.79 | 1.25 | 2.81 | CCOC(=O)N1CCC(Oc2cc(Oc3cccc(/C=C4\SC(=O)NC4=O)c3)ncn2)CC1 [Example 51, (Z)-Ethyl 4-((6-(3-((2,4-dioxothiazolidin-5-ylidene)methyl)phenoxy)pyrimidin-4-yl)oxy)piperidine-1-carboxylate] |
| 1.18 | 2.86 | 4.77 | CCc1cnc(N2CCC(Oc3cc(Oc4cccc(/C=C5\SC(=O)NC5=O)c4)ncn3)CC2)nc1 [Example 55] |
| 1.00 | 1.58 | 3.53 | CCc1cnc(N2CCC(Oc3cc(Oc4ccc(/C=C5\SC(=O)NC5=O)cc4)ncn3)CC2)nc1 [Example 41, (Z)-5-(4-((6-((1-(5-Ethylpyrimidin-2-yl)piperidin-4-yl)oxy)pyrimidin-4-yl)oxy)benzylidene)thiazolidine-2,4-dione] |
